Calls of active or inactive are those of the source. The rule behind the calls is not given here.
Tests used:
[1] = Cytotoxicity against CHO cells measured after 24 hrs by MTT assay; type: toxicity, cell-based, Cricetulus griseus; conditions: Chinese hamster
[2] = Cytotoxicity against human HeLa cells measured after 24 hrs by MTT assay; type: toxicity, cell-based
[3] = Cytotoxicity against rat PC-12 cells measured after 24 hrs by MTT assay; type: toxicity, cell-based
[4] = Cytotoxicity against mouse Neuro2a cells measured after 24 hrs by MTT assay; type: toxicity, cell-based, N2a
[5] = Cytotoxicity against human A-431 cells measured after 24 hrs by MTT assay; type: toxicity, cell-based
[6] = system: Mus musculus; test: Effect on IL-2 expression in C57BL/6 mouse transfected with mouse B16-Luc cells assessed as serum IgG level at 5 mg/kg, ip qd treated for 7 days by ELISA; type: functional, organism-based; conditions: time 7.0 day
[7] = system: Mus musculus; test: Effect on IL-2 expression in C57BL/6 mouse transfected with mouse B16-Luc cells assessed as serum […] level at 5 mg/kg, ip qd treated for 7 days by ELISA; type: functional, organism-based; conditions: time 7.0 day
[8] = system: Mus musculus; test: Effect on IL-2 expression in C57BL/6 mouse transfected with mouse B16-Luc cells assessed as serum IL-2 level at 5 mg/kg, ip qd treated for 7 days by ELISA; type: functional, organism-based; conditions: time 7.0 day
[9] = system: A-431; test: Antimigratory activity in human A-431 cells assessed as inhibition of scratch at 50 uM measured after 24 hrs by Wound healing assay; type: functional
[10] = system: A-431; test: Inhibition of cell invasion in human A-431 cells assessed as inhibition rate at 50 uM incubated for 24 hrs by crystal violet staining based transwell assay; type: functional

## CCCCCCCCCCCCC/C=C/[C@@H](O)[C@H](CO[C@@H]1O[C@H](CO)[C@@H](O[C@@H]2O[C@H](CO)[C@H](O)[C@H](O[C@]3(C(=O)O)C[C@H](O)[C@@H](NC(=O)c4cc(C)cc(C)c4)[C@H]([C@H](O)[C@H](O)CO)O3)[C@H]2O)[C@H](O)[C@H]1O)NC(=O)CCCCCCCCCCCCCCCCC
[1]
  IC50 at 24 h: > 200 µM
[2]
  IC50 at 24 h: > 200 µM
[3]
  IC50 at 24 h: > 200 µM
[4]
  IC50 at 24 h: > 200 µM
[5]
  IC50 at 24 h: > 200 µM

## CCCCCCCCCCCCC/C=C/[C@@H](O)[C@H](CO[C@@H]1O[C@H](CO)[C@@H](O[C@@H]2O[C@H](CO)[C@H](O)[C@H](O[C@]3(C(=O)O)C[C@H](O)[C@@H](NC(=O)c4cccc(Br)c4)[C@H]([C@H](O)[C@H](O)CO)O3)[C@H]2O)[C@H](O)[C@H]1O)NC(=O)CCCCCCCCCCCCCCCCC
[1]
  IC50 at 24 h: > 200 µM
[2]
  IC50 at 24 h: > 200 µM
[3]
  IC50 at 24 h: > 200 µM
[4]
  IC50 at 24 h: > 200 µM
[5]
  IC50 at 24 h: > 200 µM

## CCCCCCCCCCCCC/C=C/[C@@H](O)[C@H](CO[C@@H]1O[C@H](CO)[C@@H](O[C@@H]2O[C@H](CO)[C@H](O)[C@H](O[C@]3(C(=O)O)C[C@H](O)[C@@H](NC(C)=O)[C@H]([C@H](O)[C@H](O)CO)O3)[C@H]2O)[C@H](O)[C@H]1O)NC(=O)CCCCCCCCCCCCCCCCC
[6]
  Activity: inactive
[7]
  Activity: inactive
[8]
  Activity: inactive

## CCCCCCCCCCCCC/C=C/[C@@H](O)[C@H](CO[C@@H]1O[C@H](CO)[C@@H](O[C@@H]2O[C@H](CO)[C@H](O)[C@H](O[C@]3(C(=O)O)C[C@H](O)[C@@H](NC(=O)c4ccncc4)[C@H]([C@H](O)[C@H](O)CO)O3)[C@H]2O)[C@H](O)[C@H]1O)NC(=O)CCCCCCCCCCCCCCCCC
[9]
  Activity: Active
[1]
  IC50 at 24 h: > 200 µM
[10]
  inhibition at 50 µM: 26.2%
[2]
  IC50 at 24 h: > 200 µM
[3]
  IC50 at 24 h: > 200 µM
[4]
  IC50 at 24 h: > 200 µM
[5]
  IC50 at 24 h: > 200 µM

## CCCCCCCCCCCCC/C=C/[C@@H](O)[C@H](CO[C@@H]1O[C@H](CO)[C@@H](O[C@@H]2O[C@H](CO)[C@H](O)[C@H](O[C@]3(C(=O)O)C[C@H](O)[C@@H](NC(=O)c4ccccc4)[C@H]([C@H](O)[C@H](O)CO)O3)[C@H]2O)[C@H](O)[C@H]1O)NC(=O)CCCCCCCCCCCCCCCCC
[1]
  IC50 at 24 h: > 200 µM
[2]
  IC50 at 24 h: > 200 µM
[3]
  IC50 at 24 h: > 200 µM
[4]
  IC50 at 24 h: > 200 µM
[5]
  IC50 at 24 h: > 200 µM

## CCCCCCCCCCCCC/C=C/[C@@H](O)[C@H](CO[C@@H]1O[C@H](CO)[C@@H](O[C@@H]2O[C@H](CO)[C@H](O)[C@H](O[C@]3(C(=O)O)C[C@H](O)[C@@H](NC(=O)CC)[C@H]([C@H](O)[C@H](O)CO)O3)[C@H]2O)[C@H](O)[C@H]1O)NC(=O)CCCCCCCCCCCCCCCCC
[1]
  IC50 at 24 h: > 200 µM
[2]
  IC50 at 24 h: > 200 µM
[3]
  IC50 at 24 h: > 200 µM
[4]
  IC50 at 24 h: > 200 µM
[5]
  IC50 at 24 h: > 200 µM

## CCCCCCCCCCCCC/C=C/[C@@H](O)[C@H](CO[C@@H]1O[C@H](CO)[C@@H](O[C@@H]2O[C@H](CO)[C@H](O)[C@H](O[C@]3(C(=O)O)C[C@H](O)[C@@H](NC(C)=O)[C@H]([C@H](O)[C@H](O)CO)O3)[C@H]2O)[C@H](O)[C@H]1O)NC(=O)CCCCCCCCCC
[1]
  IC50 at 24 h: > 200 µM
[2]
  IC50 at 24 h: > 200 µM
[3]
  IC50 at 24 h: > 200 µM
[4]
  IC50 at 24 h: > 200 µM
[5]
  IC50 at 24 h: > 200 µM

## CCCCCCCCCCCCC/C=C/[C@@H](O)[C@H](CO[C@@H]1O[C@H](CO)[C@@H](O[C@@H]2O[C@H](CO)[C@H](O)[C@H](O[C@]3(C(=O)O)C[C@H](O)[C@@H](NC(=O)Cc4ccc(C)cc4)[C@H]([C@H](O)[C@H](O)CO)O3)[C@H]2O)[C@H](O)[C@H]1O)NC(=O)CCCCCCCCCCCCCCCCC
[1]
  IC50 at 24 h: > 200 µM
[2]
  IC50 at 24 h: > 200 µM
[3]
  IC50 at 24 h: > 200 µM
[4]
  IC50 at 24 h: > 200 µM
[5]
  IC50 at 24 h: > 200 µM

## CCCCCCCCCCCCC/C=C/[C@@H](O)[C@H](CO[C@@H]1O[C@H](CO)[C@@H](O[C@@H]2O[C@H](CO)[C@H](O)[C@H](O[C@]3(C(=O)O)C[C@H](O)[C@@H](NC(=O)c4cccc(F)c4)[C@H]([C@H](O)[C@H](O)CO)O3)[C@H]2O)[C@H](O)[C@H]1O)NC(=O)CCCCCCCCCCCCCCCCC
[9]
  Activity: Active
[1]
  IC50 at 24 h: > 200 µM
[10]
  inhibition at 50 µM: 27.8%
[2]
  IC50 at 24 h: > 200 µM
[3]
  IC50 at 24 h: > 200 µM
[4]
  IC50 at 24 h: > 200 µM
[5]
  IC50 at 24 h: > 200 µM

## CCCCCCCCCCCCC/C=C/[C@@H](O)[C@H](CO[C@@H]1O[C@H](CO)[C@@H](O[C@@H]2O[C@H](CO)[C@H](O)[C@H](O[C@]3(C(=O)O)C[C@H](O)[C@@H](NC(=O)c4cc(F)cc(F)c4)[C@H]([C@H](O)[C@H](O)CO)O3)[C@H]2O)[C@H](O)[C@H]1O)NC(=O)CCCCCCCCCCCCCCCCC
[1]
  IC50 at 24 h: > 200 µM
[2]
  IC50 at 24 h: > 200 µM
[3]
  IC50 at 24 h: > 200 µM
[4]
  IC50 at 24 h: > 200 µM
[5]
  IC50 at 24 h: > 200 µM

## CCCCCCCCCCCCC/C=C/[C@@H](O)[C@H](CO[C@@H]1O[C@H](CO)[C@@H](O[C@@H]2O[C@H](CO)[C@H](O)[C@H](O[C@]3(C(=O)O)C[C@H](O)[C@@H](NC(=O)c4ccc(I)cc4)[C@H]([C@H](O)[C@H](O)CO)O3)[C@H]2O)[C@H](O)[C@H]1O)NC(=O)CCCCCCCCCCCCCCCCC
[1]
  IC50 at 24 h: > 200 µM
[2]
  IC50 at 24 h: > 200 µM
[3]
  IC50 at 24 h: > 200 µM
[4]
  IC50 at 24 h: > 200 µM
[5]
  IC50 at 24 h: > 200 µM

## CCCCCCCCCCCCC/C=C/[C@@H](O)[C@H](CO[C@@H]1O[C@H](CO)[C@@H](O[C@@H]2O[C@H](CO)[C@H](O)[C@H](O[C@]3(C(=O)O)C[C@H](O)[C@@H](NC(=O)c4cccc([N+](=O)[O-])c4)[C@H]([C@H](O)[C@H](O)CO)O3)[C@H]2O)[C@H](O)[C@H]1O)NC(=O)CCCCCCCCCCCCCCCCC
[1]
  IC50 at 24 h: > 200 µM
[2]
  IC50 at 24 h: > 200 µM
[3]
  IC50 at 24 h: > 200 µM
[4]
  IC50 at 24 h: > 200 µM
[5]
  IC50 at 24 h: > 200 µM

## CCCCCCCCCCCCC/C=C/[C@@H](O)[C@H](CO[C@@H]1O[C@H](CO)[C@@H](O[C@@H]2O[C@H](CO)[C@H](O)[C@H](O[C@]3(C(=O)O)C[C@H](O)[C@@H](NC(=O)c4ccc(C=O)cc4)[C@H]([C@H](O)[C@H](O)CO)O3)[C@H]2O)[C@H](O)[C@H]1O)NC(=O)CCCCCCCCCCCCCCCCC
[9]
  Activity: Active
[1]
  IC50 at 24 h: > 200 µM
[2]
  IC50 at 24 h: > 200 µM
[3]
  IC50 at 24 h: > 200 µM
[4]
  IC50 at 24 h: > 200 µM
[5]
  IC50 at 24 h: > 200 µM

## CCCCCCCCCCCCC/C=C/[C@@H](O)[C@H](CO[C@@H]1O[C@H](CO)[C@@H](O[C@@H]2O[C@H](CO)[C@H](O)[C@H](O[C@]3(C(=O)O)C[C@H](O)[C@@H](NC(=O)c4ccc(F)cc4)[C@H]([C@H](O)[C@H](O)CO)O3)[C@H]2O)[C@H](O)[C@H]1O)NC(=O)CCCCCCCCCCCCCCCCC
[1]
  IC50 at 24 h: > 200 µM
[2]
  IC50 at 24 h: > 200 µM
[3]
  IC50 at 24 h: > 200 µM
[4]
  IC50 at 24 h: > 200 µM
[5]
  IC50 at 24 h: > 200 µM

— ChEMBL document CHEMBL5042529, “One-Pot Enzymatic Synthesis and Biological Evaluation of Ganglioside GM3 Derivatives as Potential Cancer Immunotherapeutics” (J Med Chem, 2022)
